Test results as given in patent US10336710B2, “Benzimidazole derivatives, preparation method therefor, and applications thereof” (BEIJING PHARMACEUTICAL GROUP CO., LTD., priority 2015, dated 2019).

Key:
hyperuricemia rat models = assay: Therapeutic effect on potassium oxonate-induced hyperuricemia rat models (blood uric acid); type: in vivo, SD rats; conditions: for Blood uric acid concentration before drug administration: baseline, rat serum; for Blood uric acid concentration before drug administration / Blood uric acid concentration 7 days after drug administration: mean ± SD; for Blood uric acid concentration 7 days after drug administration: potassium oxonate 250 mg/kg/d i.p.; for Blood uric acid increase: 7 days vs before drug administration; for Effect on increment of blood uric acid levels compared with model control group (in words): 80 mg/kg/day and 40 mg/kg/day, potassium oxonate rat model
Method: Experimental animals: SD rats (SPF level), Laboratory Animal Center, Chinese Academy of Military Medical Sciences.
Rats weighing 200±20 g were fasted for 12 hours after a 1-week adaptive feeding period and were intraperitoneally injected with potassium oxonate (250 mg/kg/d) once daily for 7 consecutive days for modeling. The rats were closely observed after injection. […]
Blood samples were collected from the retro-orbital venous plexus before the preparation of the rat models and after administering the test compounds for 7 days. Serum was separated from the blood samples. Urine was collected using a metabolic cage for 24 hours and the supernatant was collected after centrifuge. Blood uric acid levels were measured using an automatic biochemical analyzer. The average increment in blood uric acid concentration was calculated for each group of animals.
SPSS 13.0 statistical software package was used to analyze the data. The data in each group were expressed as mean plus or minus standard deviation (x±s). The data were compared using a comparative t-test between groups, where p<0.05 was considered as statistically significant.

human URAT1 = human URAT1 (Homo sapiens (Human), UniProt Q96S37); assay: 14C-uric acid uptake inhibition in URAT1 high-expression 293/hURAT1 cells; type: cell-based; conditions: 50 μM 14C-uric acid, 5 minutes at 37° C., read-out: URAT1 IC50 activity classification
Method: The transfected cells were assayed for ability to uptake uric acid labelled with radioisotope. The test compounds were then evaluated for their activity by determining of their ability to block uric acid uptake by the transfected cells.
293/h URAT1 cells were plated at a density of 40000 cells/well in poly D-lysine-coated 96-well plates (BD, 356461) and incubated overnight. The medium was removed and a pre-warmed reaction buffer was added (125 mM sodium gluconate, 4.8 mM potassium gluconate, 1.3 mM calcium gluconate, 1.2 mM potassium dihydrogen phosphate, 1.2 mM magnesium sulfate, 5.6 mM glucose, 25 mM HEPES, pH 7.4) before incubating at 37° C. for 10 minutes. The buffer was removed and another reaction buffer containing 50 μM ^14C-uric acid (American Radiolabeled Chemicals, ARC0513) and the test compounds or solvent control was added before incubating at 37° C. for 5 minutes. The buffer was removed, and the plates were washed 3 times with the buffer. Cells were lysed by adding 100 mM NaOH for 20 minutes. Cell lysates were transferred to Isoplate-96 well plates (PerkinElmer, 6005040), mixed with liquid scintillators and were counted in a MicroBeta^2 (PerkinElmer) counter.
The test compounds were all dissolved in DMSO, and DMSO of the same concentration without the test compounds was used as a solvent control. […] The IC50 of each compound was calculated using the percentage of inhibition at different concentrations.

[1] = 40 mg/kg/d intragastric once daily for 7 days
[2] = 80 mg/kg/d intragastric once daily for 7 days

Chain of human URAT1 (Q96S37 whole entry): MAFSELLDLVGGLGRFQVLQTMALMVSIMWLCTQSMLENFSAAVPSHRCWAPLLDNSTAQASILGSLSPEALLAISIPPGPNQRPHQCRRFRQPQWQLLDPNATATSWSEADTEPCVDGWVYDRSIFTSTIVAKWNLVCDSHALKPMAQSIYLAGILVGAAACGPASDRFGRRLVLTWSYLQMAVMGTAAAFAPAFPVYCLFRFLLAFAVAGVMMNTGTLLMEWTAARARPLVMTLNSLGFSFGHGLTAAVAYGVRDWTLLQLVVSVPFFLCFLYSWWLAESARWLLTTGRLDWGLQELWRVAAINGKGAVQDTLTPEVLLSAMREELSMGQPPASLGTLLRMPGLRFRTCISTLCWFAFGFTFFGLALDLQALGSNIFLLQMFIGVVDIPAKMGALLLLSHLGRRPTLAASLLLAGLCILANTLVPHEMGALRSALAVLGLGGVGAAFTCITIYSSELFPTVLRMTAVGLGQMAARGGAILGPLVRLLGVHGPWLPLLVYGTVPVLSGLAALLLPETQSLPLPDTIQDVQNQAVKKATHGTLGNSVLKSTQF

Compound | Blood uric acid concentration before drug administration (hyperuricemia rat models; 40 mg/kg/d group) [µmol/L] | Blood uric acid concentration 7 days after drug administration (hyperuricemia rat models; [1]) [µmol/L] | Blood uric acid increase (hyperuricemia rat models; 40 mg/kg/d) [%] | Blood uric acid concentration before drug administration (hyperuricemia rat models; 80 mg/kg/d group) [µmol/L] | Blood uric acid concentration 7 days after drug administration (hyperuricemia rat models; [2]) [µmol/L] | Blood uric acid increase (hyperuricemia rat models; 80 mg/kg/d) [%] | Effect on increment of blood uric acid levels compared with model control group (in words) (hyperuricemia rat models) | IC50 (human URAT1) [µM]
COc1ccc2c(c1)nc(SC(C)(C)C(=O)O)n2-c1ccc(C#N)c2ccccc12 [Example I1, 2-methyl-2-[[5-methoxy-1-(4-cyanonaphth-1-yl)-1H-benzo[d]imidazol-2-yl]thio]propanoic acid] | 169.61 ± 19.57 | 175.79 ± 16.54 | 3.64 | 175.83 ± 16.39 | 175.95 ± 15.43 | 0.07 | could significantly reduce the increment of blood uric acid levels | 1 to 15
CC(C)(Sc1nc2ccccc2n1-c1ccc(C#N)c2ccccc12)C(=O)O [Example I2, 2-methyl-2-[[1-(4-cyanonaphth-1-yl)-1H-benzo[d]imidazol-2-yl]thio]propanoic acid] | 156.38 ± 12.62 | 172.86 ± 9.37 | 10.54 | 150.86 ± 20.46 | 161.81 ± 8.38 | 7.26 | could significantly reduce the increment of blood uric acid levels | 1 to 15
CC(C)(Sc1nc2cc(Br)ccc2n1-c1ccc(C#N)c2ccccc12)C(=O)O [Example I3, 2-methyl-2-[[5-bromo-1-(4-cyanonaphth-1-yl)-1H-benzo[d]imidazol-2-yl]thio]propanoic acid] | 169.21 ± 14.24 | 180.38 ± 14.36 | 6.60 | 181.25 ± 24.86 | 159.40 ± 13.99 | −12.06 | could significantly reduce the increment of blood uric acid levels | 1 to 15
CC(C)(Sc1nc2ccccc2n1-c1ccc(C#N)cc1)C(=O)O [Example I4, 2-methyl-2-[[1-(4-cyanophenyl)-1H-benzo[d]imidazol-2-yl]thio]propanoic acid] | 142.57 ± 6.43 | 173.05 ± 17.24 | 21.38 | 158.38 ± 13.67 | 177.24 ± 5.77 | 11.90 |  | 1 to 15
CC(C)(Sc1nc2ccccc2n1-c1ccc(C2CC2)c2ccccc12)C(=O)O [Example I5, 2-methyl-2-[[1-(4-cyclopropylnaphth-1-yl)-1H-benzo[d]imidazol-2-yl]thio]propanoic acid] |  |  |  |  |  |  |  | 15 to 30
O=C(O)C(Sc1nc2ccccc2n1-c1ccc(C2CC2)c2ccccc12)c1ccc(Cl)cc1 (stereo not drawn) [Example I6, 2-(4-chlorophenyl)-2-[[1-(4-cyclopropylnaphth-1-yl)-1H-benzo[d]imidazol-2-yl]thio]acetic acid] |  |  |  |  |  |  |  | 15 to 30
CC(C)(Sc1nc2ccccc2n1-c1ccc([N+](=O)[O-])cc1F)C(=O)O [Example I7, 2-methyl-2-[[1-(4-nitro-2-fluorophenyl)-1H-benzo[d]imidazol-2-yl]thio]propanoic acid] |  |  |  |  |  |  |  | 30 to 100
CC(C)(Sc1nc2ccccc2n1-c1ccccc1)C(=O)O [Example I8, 2-methyl-2-[(1-phenyl-1H-benzo[d]imidazol-2-yl)thio]propanoic acid] |  |  |  |  |  |  |  | 30 to 100
CC(C)(Sc1nc2ccccc2n1-c1ccc(Br)cc1F)C(=O)O [Example I11, 2-methyl-2-[[1-(4-bromo-2-fluorophenyl)-1H-benzo[d]imidazol-2-yl]thio]propanoic acid] |  |  |  |  |  |  |  | 15 to 30
CC(C)(Sc1nc2ccccc2n1-c1ccc(Cl)cc1F)C(=O)O [Example I12, 2-methyl-2-[[1-(4-chloro-2-fluorophenyl)-1H-benzo[d]imidazol-2-yl]thio]propanoic acid] |  |  |  |  |  |  |  | 15 to 30
CC(C)(Sc1nc2ccccc2n1-c1ccccc1F)C(=O)O [Example I13, 2-methyl-2-[[1-(2-fluorophenyl)-1H-benzo[d]imidazol-2-yl]thio]propanoic acid] |  |  |  |  |  |  |  | 15 to 30
O=C(O)CSc1nnc(Br)n1-c1ccc(C2CC2)c2ccccc12 [Lesinurad, reference compound] | 156.02 ± 8.69 | 172.57 ± 25.43 | 10.61 | 161.20 ± 22.07 | 166.85 ± 12.76 | 3.50 | could reduce the increment of blood uric acid levels | 
